Data published in EP2902382A1, “Primary hydroxylamines and uses thereof” (Fundació Institut de Recerca Biomèdica IRB (Barcelona), priority 2014, dated 2015).
≈ marks a conversion by molar mass, not a printed value. Where a name gives a salt, the structure may show the parent alone. Read-outs that look alike come from different tables or passages of the source.

Assays:
Pseudomonas aeruginosa = test: Minimum inhibitory concentration (MIC), microtiter broth dilution method; assay type: cell-based, Pseudomonas aeruginosa ATCC 15692 (CECT 4122); conditions: read-out: MIC (minimum inhibitory concentration)
Bacillus anthracis = test: microbe, parasite or virus in culture; assay type: cell-based, Bacillus anthracis Sterne 7700 pXO1-/pXO2-; conditions: 9 h, read-out: MIC (minimum inhibitory concentration)
P. aeruginosa = test: Capacity to inhibit the formation of bacterial biofilms; assay type: cell-based; conditions: 37°C for 48 h without agitation, viable count (cfu/ml), Fig. 1
S. aureus = assay type: cell-based
Enterococcus faecalis = test: Minimum inhibitory concentration (MIC), microtiter broth dilution method; assay type: cell-based, Enterococcus faecalis ATCC 19433 (CECT 481); conditions: TSB broth, 37°C for 9 h, mean of triplicates
Staphylococcus aureus = test: as above; assay type: cell-based, Staphylococcus aureus ATCC 12600 (CECT 86); conditions: read-out: MIC (minimum inhibitory concentration)
[1] = tested on: murine macrophage J774 cell line; test: Cytotoxicity, MTT colorimetric cell viability assay; assay type: cell-based; conditions: Mus musculus, J774 macrophages, 24 and 48 h of exposure (time not given), read-out: Cytoxicity (IC50)
Staphylococcus epidermis = test: Minimum inhibitory concentration (MIC), microtiter broth dilution method; assay type: cell-based, Staphylococcus epidermidis ATCC 1798 (CECT 231); conditions: TSB broth, 37°C for 9 h, mean of triplicates
[2] = TSB broth, 37°C for 9 h, mean of triplicates

ONCC1CCCCC1 [Example 2, N-cyclohexylmethyl-hydroxylamine]
MIC (Pseudomonas aeruginosa; [2]): 125 to 250 µM (≈ 16.2 to 32.3 µg/mL) | MIC (Bacillus anthracis): 250 to 500 µM (≈ 32.3 to 64.6 µg/mL) | biofilm formation (P. aeruginosa): inhibit | biofilm formation (S. aureus): inhibit | MIC (Enterococcus faecalis): 500 to 1000 µM (≈ 64.6 to 129 µg/mL) | MIC (Staphylococcus aureus; [2]): 250 to 500 µM (≈ 32.3 to 64.6 µg/mL) | IC50 [1]: 1330 µM | MIC (Staphylococcus epidermis): 250 to 500 µM (≈ 32.3 to 64.6 µg/mL)

COc1cccc(OC)c1CNO [Comp 8, N-(2,6-Dimethoxybenzyl)-hydroxylamine, reference compound]
MIC (Pseudomonas aeruginosa; [2]): > 4000 µM | MIC (Bacillus anthracis): > 4000 µM | MIC (Staphylococcus aureus; [2]): > 4000 µM

COc1ccc(CNO)c(OC)c1 [Example 4, N-(2,4-dimethoxybenzyl)-hydroxylamine]
MIC (Pseudomonas aeruginosa; [2]): 1000 to 2000 µM (≈ 183 to 366 µg/mL) | MIC (Bacillus anthracis): 125 to 250 µM (≈ 22.9 to 45.8 µg/mL) | biofilm formation (P. aeruginosa): inhibit | biofilm formation (S. aureus): inhibit | MIC (Enterococcus faecalis): 500 to 1000 µM (≈ 91.6 to 183 µg/mL) | MIC (Staphylococcus aureus; [2]): 500 to 1000 µM (≈ 91.6 to 183 µg/mL) | IC50 [1]: 2270 µM | MIC (Staphylococcus epidermis): 125 to 250 µM (≈ 22.9 to 45.8 µg/mL)

ONCc1cc(C(F)(F)F)cc(C(F)(F)F)c1 [Example 6, N-(3,5-bis-trifluoromethylbenzyl)-hydroxylamine]
MIC (Pseudomonas aeruginosa; [2]): 1000 to 2000 µM (≈ 259 to 518 µg/mL) | MIC (Bacillus anthracis): 125 to 625 µM (≈ 32.4 to 162 µg/mL) | MIC (Enterococcus faecalis): 500 to 1000 µM (≈ 130 to 259 µg/mL) | MIC (Staphylococcus aureus; [2]): 250 to 500 µM (≈ 64.8 to 130 µg/mL) | IC50 [1]: 2070 µM | MIC (Staphylococcus epidermis): 125 to 250 µM (≈ 32.4 to 64.8 µg/mL)

ONCCc1ccccc1 [Example 1, N-phenethyl-hydroxylamine]
MIC (Pseudomonas aeruginosa; [2]): 500 to 1000 µM (≈ 68.6 to 137 µg/mL) | MIC (Bacillus anthracis): 250 to 500 µM (≈ 34.3 to 68.6 µg/mL) | biofilm formation (P. aeruginosa): inhibit | biofilm formation (S. aureus): inhibit | MIC (Enterococcus faecalis): 1000 to 2000 µM (≈ 137 to 274 µg/mL) | MIC (Staphylococcus aureus; [2]): 250 to 500 µM (≈ 34.3 to 68.6 µg/mL) | IC50 [1]: 1890 µM

ONCc1ccc(F)cc1 [Example 3, N-(4-fluorobenzyl)-hydroxylamine]
MIC (Pseudomonas aeruginosa; [2]): 1000 to 2000 µM (≈ 141 to 282 µg/mL) | MIC (Bacillus anthracis): 125 to 625 µM (≈ 17.6 to 88.2 µg/mL) | biofilm formation (P. aeruginosa): inhibit | biofilm formation (S. aureus): inhibit | MIC (Enterococcus faecalis): 500 to 1000 µM (≈ 70.6 to 141 µg/mL) | MIC (Staphylococcus aureus; [2]): 500 to 1000 µM (≈ 70.6 to 141 µg/mL) | IC50 [1]: 1300 µM | MIC (Staphylococcus epidermis): 125 to 250 µM (≈ 17.6 to 35.3 µg/mL)

ONCc1ccccc1 [Comp 7, N-Benzyl-hydroxylamine hydrochloride, reference compound]
MIC (Pseudomonas aeruginosa; 9 h): > 4000 µM | MIC (Bacillus anthracis): > 4000 µM | MIC (Staphylococcus aureus; 9 h): > 4000 µM | IC50 [1]: > 4000 µM

COc1ccc(CNO)c(C)c1 [Example 5, N-(4-methoxy-2-methylbenzyl)-hydroxylamine]
MIC (Pseudomonas aeruginosa; [2]): 1000 to 2000 µM (≈ 167 to 334 µg/mL) | MIC (Bacillus anthracis): 125 to 625 µM (≈ 20.9 to 105 µg/mL) | MIC (Enterococcus faecalis): 250 to 500 µM (≈ 41.8 to 83.6 µg/mL) | MIC (Staphylococcus aureus; [2]): > 4000 µM | IC50 [1]: 2180 µM | MIC (Staphylococcus epidermis): 250 to 500 µM (≈ 41.8 to 83.6 µg/mL)
